# Test results reported in patent publication US9980943B2, “Methods of treating muscular dystrophy” (BOARD OF REGENTS OF THE NEVADA SYSTEM OF HIGHER EDUCATION, …, priority 2013, dated 2018).
# Legend:
# Assay type in all cases: cell-based, mouse
# [1] = system: α7 integrin (LacZ reporter in α7βgal+/− myoblasts); assay: Myoblast α7+/LacZ integrin FDG assay (Burkin assay in myoblasts, 96-well); settings: α7+/LacZ myoblasts, 96-well
# [2] = system: α7 integrin (LacZ reporter in α7+/LacZ myotubes); assay: Myotube α7 integrin FDG assay (Burkin assay in myotubes, 96-well); settings: myotubes
# [3] = system: β-galactosidase in CMV-LacZ C2C12 myoblasts; assay: CMV-LacZ secondary screen in C2C12 myoblasts (β-Gal stabilizing assay); settings: CMV-LacZ C2C12 myoblasts
# In short: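 C2C12 myoblasts stably carrying a linearized CMV-driven LacZ construct, clone chosen by β-gal level in the myoblast FDG assay. Compounds tested in 96-well dose-response at 0.5, 1, 5, 10, 20 and 40 μM, N=2 replicates per point, to detect β-gal stabilization.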
# [4] = system: β-galactosidase in CMV-LacZ C2C12 myotubes; assay: CMV-LacZ secondary screen in C2C12 myotubes (β-Gal stabilizing assay); settings: C2C12 CMV-LacZ myotubes, fold relative to DMSO
# In short: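 A secondary screen identifies compounds that stabilize β-gal independently of the native promoter, using CMV-LacZ C2C12 cells. Curves span 0.5–40 μM at six levels, in duplicate.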
Structure (SMILES),"Burkin Assay in Myoblasts, signal relative to DMSO ([1]; 0.5 uM)","Burkin Assay in Myoblasts, signal relative to DMSO ([1]; 1 uM)","Burkin Assay in Myoblasts, signal relative to DMSO ([1]; 5 uM)","Burkin Assay in Myoblasts, signal relative to DMSO ([1]; 10 uM)","Burkin Assay in Myoblasts, signal relative to DMSO ([1]; 20 uM)","Burkin Assay in Myoblasts, signal relative to DMSO ([1]; 40 uM)","Burkin Assay in Myotubes, α7 integrin LacZ reporter signal relative to DMSO ([2]; 0.5 uM)","Burkin Assay in Myotubes, α7 integrin LacZ reporter signal relative to DMSO ([2]; 1 uM)","Burkin Assay in Myotubes, α7 integrin LacZ reporter signal relative to DMSO ([2]; 5 uM)","Burkin Assay in Myotubes, α7 integrin LacZ reporter signal relative to DMSO ([2]; 10 uM)","Burkin Assay in Myotubes, α7 integrin LacZ reporter signal relative to DMSO ([2]; 20 uM)","Burkin Assay in Myotubes, α7 integrin LacZ reporter signal relative to DMSO ([2]; 40 uM)",CMV-LACZ in Myoblasts (β-galactosidase activity relative to DMSO) ([3]; 0.5 uM),CMV-LACZ in Myoblasts (β-galactosidase activity relative to DMSO) ([3]; 1 uM),CMV-LACZ in Myoblasts (β-galactosidase activity relative to DMSO) ([3]; 5 uM),CMV-LACZ in Myoblasts (β-galactosidase activity relative to DMSO) ([3]; 10 uM),CMV-LACZ in Myoblasts (β-galactosidase activity relative to DMSO) ([3]; 20 uM),CMV-LACZ in Myoblasts (β-galactosidase activity relative to DMSO) ([3]; 40 uM),"CMV-LACZ in Myotubes, signal relative to DMSO ([4]; 0.5 uM)","CMV-LACZ in Myotubes, signal relative to DMSO ([4]; 1 uM)",further results
COc1cc([N+](=O)[O-])cc(/C=N/NC(=O)C(O)(c2ccccc2)c2ccccc2)c1O [MLS001183575-01],0.9644,1.009,0.8981,0.7946,0.6916,0.5338,1.0887,0.9681,0.8172,0.7938,0.7378,0.6868,1.1603,1.2440,0.8972,0.7762,1.2825,0.8856,0.9648,0.8657,"CMV-LACZ in Myotubes, signal relative to DMSO ([4]; 5 uM): 0.7726; CMV-LACZ in Myotubes, signal relative to DMSO ([4]; 10 uM): 0.9136; CMV-LACZ in Myotubes, signal relative to DMSO ([4]; 20 uM): 0.8230; CMV-LACZ in Myotubes, signal relative to DMSO ([4]; 40 uM): 1.1230"
CCOc1cc(C)c(S(=O)(=O)N2CCCCC2)cc1C [MLS000693795-01],1.1137,1.242,1.02,0.9728,1.187,1.24,0.8397,0.9171,0.9381,0.9384,1.002,0.9513,0.9100,1.1104,0.9554,0.9207,0.8526,0.8730,0.9771,1.0314,"CMV-LACZ in Myotubes, signal relative to DMSO ([4]; 5 uM): 1.1780; CMV-LACZ in Myotubes, signal relative to DMSO ([4]; 10 uM): 1.0774; CMV-LACZ in Myotubes, signal relative to DMSO ([4]; 20 uM): 1.0453; CMV-LACZ in Myotubes, signal relative to DMSO ([4]; 40 uM): 1.0716"
COc1ccc(CNC(=O)C2CCCN(S(=O)(=O)c3c(C)noc3/C=C/N(C)C)C2)cc1 (stereo not drawn) [MLS000925023-01],0.996,1.035,0.9523,0.7957,0.7765,0.4179,1.16,1.24,0.8969,0.8784,0.8004,0.7318,1.0703,0.9629,0.9762,0.8397,0.5504,0.3278,0.7505,1.1333,"CMV-LACZ in Myotubes, signal relative to DMSO ([4]; 5 uM): 1.1638; CMV-LACZ in Myotubes, signal relative to DMSO ([4]; 10 uM): 0.8859; CMV-LACZ in Myotubes, signal relative to DMSO ([4]; 20 uM): 1.1565; CMV-LACZ in Myotubes, signal relative to DMSO ([4]; 40 uM): 1.1106"
Cn1cc(CN2CCC(C(=O)Nc3cccc(-c4cscn4)c3)CC2)cn1 [MLS001105912-01],1.162,1.057,1.029,1.246,0.6025,0.4631,0.9483,1.061,0.9467,1.1322,0.8299,1.003,1.0725,1.0321,1.0003,0.9597,0.5323,0.3873,1.1391,0.9618,"CMV-LACZ in Myotubes, signal relative to DMSO ([4]; 5 uM): 0.9313; CMV-LACZ in Myotubes, signal relative to DMSO ([4]; 10 uM): 1.0857; CMV-LACZ in Myotubes, signal relative to DMSO ([4]; 20 uM): 1.1910; CMV-LACZ in Myotubes, signal relative to DMSO ([4]; 40 uM): 1.8130"
O=C1Nc2ccccc2/C1=C/c1ccccc1F [MLS001202389-01],0.9323,0.9481,1.009,1.1004,0.5816,0.2556,0.9181,0.9393,0.9936,1.053,0.6412,0.5594,1.0237,1.1108,1.0084,0.8920,0.6115,0.5081,1.1558,1.1821,"CMV-LACZ in Myotubes, signal relative to DMSO ([4]; 5 uM): 1.0432; CMV-LACZ in Myotubes, signal relative to DMSO ([4]; 10 uM): 1.1312; CMV-LACZ in Myotubes, signal relative to DMSO ([4]; 20 uM): 1.0900; CMV-LACZ in Myotubes, signal relative to DMSO ([4]; 40 uM): 0.9311"
